The target in the test is p97/VCP (Homo sapiens, UniProt P55072). Description: cell-free ATPase assay on purified recombinant p97/VCP. It is filed as biochemical.

Our source for the IC50 values is PMC6778635 (Cancer Science, 2019).

By IC50 is commonly meant the concentration needed to halve the response being measured.

p97/VCP, sequence (P55072 2-806): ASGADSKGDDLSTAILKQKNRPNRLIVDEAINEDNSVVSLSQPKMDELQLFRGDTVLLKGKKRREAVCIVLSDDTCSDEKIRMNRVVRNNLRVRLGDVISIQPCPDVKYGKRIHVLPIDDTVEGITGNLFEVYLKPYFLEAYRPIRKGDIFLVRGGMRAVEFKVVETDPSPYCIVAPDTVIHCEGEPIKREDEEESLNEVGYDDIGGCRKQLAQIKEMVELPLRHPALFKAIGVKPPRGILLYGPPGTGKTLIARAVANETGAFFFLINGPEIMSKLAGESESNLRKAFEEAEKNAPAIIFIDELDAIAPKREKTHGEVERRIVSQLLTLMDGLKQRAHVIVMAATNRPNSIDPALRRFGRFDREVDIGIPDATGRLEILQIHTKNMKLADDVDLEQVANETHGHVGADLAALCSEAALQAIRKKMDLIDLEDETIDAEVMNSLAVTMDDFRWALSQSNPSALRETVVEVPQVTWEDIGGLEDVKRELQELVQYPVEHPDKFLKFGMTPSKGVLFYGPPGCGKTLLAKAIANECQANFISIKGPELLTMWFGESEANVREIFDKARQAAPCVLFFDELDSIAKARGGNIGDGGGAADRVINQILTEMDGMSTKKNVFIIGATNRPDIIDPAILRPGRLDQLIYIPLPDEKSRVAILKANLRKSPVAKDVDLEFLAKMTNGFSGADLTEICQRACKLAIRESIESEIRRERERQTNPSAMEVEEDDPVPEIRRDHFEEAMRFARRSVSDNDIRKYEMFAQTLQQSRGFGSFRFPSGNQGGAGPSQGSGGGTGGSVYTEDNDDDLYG

For the compound `c1ccc(CNc2nc(NCc3ccccc3)c3ccccc3n2)cc1` [DBeQ], the IC50 came to 6.99 ± 0.5 µM.
